Assay results from patent US20090215826A1, “SOLID FORMS OF A PYRROLIDINE-3,4-DICARBOXAMIDE DERIVATIVE” (priority 2007, published 2009).

Assay: Storage stability of crystalline form B (HPLC, IR, XRPD)
Format: physicochemical
Conditions: storage for 1 year up to 40° C./75% rh
Description: “IR” is used herein as an acronym of Infra Red spectroscopy. IR spectra were recorded as film of a Nujol suspension of approximately 5 mg of sample and few Nujol between two sodium chloride plates, with an FTIR spectrometer in transmittance. The Spectrometer is a Nicolet™ 20SXB or equivalent (resolution 2 cm^−1, 32 or more coadded scans, MCT detector).
“XRPD (is used herein as an acronym of X-Ray Powder Diffraction)” X-ray diffraction patterns were recorded at ambient conditions in transmission geometry with a STOE STADIP diffractometer (Cu Kα radiation, primary monochromator, position sensitive detector, angular range 3° to 42° 2 Theta, approximately 60 minutes total measurement time). The samples were prepared and analyzed without further processing (e.g. grinding or sieving) of the substance. “TGA (is used herein as an acronym of ThermoGravimetric Analysis)” was performed on a Mettler-Toledo™ thermogravimetric analyzer (TGA850 or TGA851). System suitability tests and calibrations were carried out according to the internal standard operation procedure.
The Form B has been characterized with IR and XRPD. The chemical stability was measured by HPLC (high performance liquid chromatography).

Structure (SMILES): O=C(Nc1ccc(Cl)cn1)[C@H]1CN(CC(F)F)C[C@@H]1C(=O)Nc1ccc(-n2ccccc2=O)cc1F [Form B, (3R,4R)-1-(2,2-Difluoroethyl)-pyrrolidine-3,4-dicarboxylic acid 3-[(5-chloro-pyridin-2-yl)-amide] 4-{[2-fluoro-4-(2-oxo-2H-pyridin-1-yl)-phenyl]-amide}]
- chemical stability (degradation) measured by HPLC: No significant degradation
- crystal form compared to the initial analysis (IR and XRPD): has not been changed
